Measured values as given in US9206177B2, “Substituted dimeric quinazoline-2,4-diones as FGF receptor agonists” (Sanofi, priority 2011, dated 2015).
pEC50: −log10 of the molar value.

Key:
[1] = test system: human venous endothelial cells (HUVECs); experiment: In vitro angiogenesis model (pseudotubule length of HUVECs on matrigel/collagen); format: cell-based; design: % activation with respect to FGF2 (in vitro): concentration or dose not given beside the values; conditions: for pEC50 / % activation with respect to FGF2 (in vitro): in vitro; for % activation with respect to FGF2 (in vitro): relative to FGF2
Method: In Vitro Angiogenesis Model
The products are tested for their ability to cause rearrangement of human venous endothelial cells (HUVECs) on matrigel (Becton dickinson 356230) diluted in collagen (rat tail collagen, type I: Becton dickinson 354236). After 24 hours, the cells are observed under a microscope with a ×4 objective and the length of the pseudotubules is measured by means of an image analyser (BIOCOM-logiciel Visiolab 2000).

mice = experiment: Sponge angiogenesis model (haemoglobin content of implanted cellulose sponge); format: in vivo; conditions: at a concentration of 300 μM
From the text: Sponge Angiogenesis Model
The sponge angiogenesis model is an adaptation of the technique of Andrade et al. [Andrade S P, Machado R., Teixeiras, Belo A V, Tarso A M, Beraldo W T—Sponge-induced angiogenesis in mice and the pharmacological reactivity of the neovasculature quantitated by fluorimetric method, Microvascular Research, 1997, 54: 253-61.]
The mice used are BalbC females from Charles River Laboratory, 7 to 10 weeks old. The animals are anaesthetized by intraperitoneal injection of a xylazine/ketamine mixture (1 mg/kg each in 0.9% NaCl). The animal's back is shaved and disinfected with hexomedine. A subcutaneous 5 ml pocket of air is made on the animal's back with sterile air. An incision is then made (approximately 1 cm) on the top of the animal's back in order to implant the sponge in the pocket. The biocompatible cellulose sponge (Cellspon, Interchim, 10 mm in diameter) was sterilized beforehand (autoclave 20 min at 120° C.) and is impregnated with 50 μl of sterile solution containing the test product. Suturing is performed by inserting two 9-mm stainless steel autoclip staples (Subra). The wound is again disinfected with hexomedine. […]
To assay the haemoglobin, 50 μl of each sample are deposited in a 96-well plate, in duplicate. […] The OD values are read on a spectrophotometer at 405 nm, using the Biolise software (Tecan, France). […]

Cc1c(-c2ccc(OCC(=O)NCCCCCCNC(=O)COc3ccc(-c4c(C)c(C(=O)c5ccc6[nH]c(=O)n(CC(=O)O)c(=O)c6c5)n5ccccc45)cc3)cc2)c2ccccn2c1C(=O)c1ccc2[nH]c(=O)n(CC(=O)O)c(=O)c2c1 [Compound 4]
pEC50 [1]: > 9.00 | % activation with respect to FGF2 (in vitro) [1]: 57% | active on the in vitro angiogenesis model (sentence stands under the sponge angiogenesis model) (mice): active

Cc1c(-c2ccc(C(=O)NCCOP(=O)(O)OCCNC(=O)c3ccc(-c4c(C)c(C(=O)c5ccc6c(=O)n(CC(=O)O)c(=O)[nH]c6c5)n5ccccc45)cc3)cc2)c2ccccn2c1C(=O)c1ccc2c(=O)n(CC(=O)O)c(=O)[nH]c2c1 [Compound 16, [7-({1-[4-({9-[4-(3-{[3-(carboxymethyl)-2,4-dioxo-1,4-dihydroquinazolin-7(2H)-yl]carbonyl}-2-methylindolizin-1-yl)phenyl]-4-hydroxy-4-oxido-9-oxo-3,5-dioxa-8-aza-4λ^5-phosphanon-1-yl}carbamoyl)phenyl]-2-methylindolizin-3-yl}carbonyl)-2,4-dioxo-1,4-dihydroquinazolin-3(2H)-yl]acetic acid]
pEC50 ([1]; Homo sapiens, HUVEC): > 9.00 | active on the in vitro angiogenesis model ([1]; at a concentration of 10 nM): active | % activation with respect to FGF2 (in vitro) [1]: 82%

Cc1c(-c2ccc(C(=O)NCCOCCOCCNC(=O)c3ccc(-c4c(C)c(C(=O)c5ccc6c(=O)n(CC(=O)O)c(=O)[nH]c6c5)n5ccccc45)cc3)cc2)c2ccccn2c1C(=O)c1ccc2c(=O)n(CC(=O)O)c(=O)[nH]c2c1 [Compound 17, 2,2′-{ethane-1,2-diylbis[oxyethane-2,1-diylcarbamoylbenzene-4,1-diyl(2-methylindolizine-1,3-diyl)carbonyl(2,4-dioxo-1,4-dihydroquinazoline-7,3(2H)-diyl)]}diacetic acid]
pEC50 [1]: 8.00 | % activation with respect to FGF2 (in vitro) [1]: 44%

Cc1c(-c2cccc(C(=O)NCCOCCOCCNC(=O)c3cccc(-c4c(C)c(C(=O)c5ccc6c(=O)n(CC(=O)O)c(=O)[nH]c6c5)n5ccccc45)c3)c2)c2ccccn2c1C(=O)c1ccc2c(=O)n(CC(=O)O)c(=O)[nH]c2c1 [Compound 18, 2,2′-{ethane-1,2-diylbis[oxyethane-2,1-diylcarbamoylbenzene-3,1-diyl(2-methylindolizine-1,3-diyl)carbonyl(2,4-dioxo-1,4-dihydroquinazoline-7,3(2H)-diyl)]}diacetic acid]
pEC50 [1]: > 9.00 | % activation with respect to FGF2 (in vitro) [1]: 85%

Cc1c(-c2cccc(C(=O)NCCOP(=O)(O)OCCNC(=O)c3cccc(-c4c(C)c(C(=O)c5ccc6c(=O)n(CC(=O)O)c(=O)[nH]c6c5)n5ccccc45)c3)c2)c2ccccn2c1C(=O)c1ccc2c(=O)n(CC(=O)O)c(=O)[nH]c2c1 [Compound 19, [7-({1-[3-({9-[3-(3-{[3-(carboxymethyl)-2,4-dioxo-1,4-dihydroquinazolin-7(2H)-yl]carbonyl}-2-methylindolizin-1-yl)phenyl]-4-hydroxy-4-oxido-9-oxo-3,5-dioxa-8-aza-4λ^5-phosphanon-1-yl}carbamoyl)phenyl]-2-methylindolizin-3-yl}carbonyl)-2,4-dioxo-1,4-dihydroquinazolin-3(2H)-yl]acetic acid]
pEC50 ([1]; Homo sapiens, HUVEC): 8.52 | % activation with respect to FGF2 (in vitro) [1]: 35%

Cc1c(NC(=O)c2cccc(OCC(=O)NCCNC(=O)COc3cccc(C(=O)Nc4c(C)c(C(=O)c5ccc6c(=O)n(CC(=O)O)c(=O)[nH]c6c5)n5ccccc45)c3)c2)c2ccccn2c1C(=O)c1ccc2c(=O)n(CC(=O)O)c(=O)[nH]c2c1 [Compound 20]
pEC50 [1]: > 8.52 | % activation with respect to FGF2 (in vitro) [1]: 61%
